Results reported in PubChem BioAssay AID504359 (Broad Institute, 2011).
Activity calls are given as the source filed them.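 The calls were made as follows: active = fitted curve climbs past 10% caspase activation, relative to the positive control, at or below the top valid tested dose; inactive = the rest, including activity in the opposite direction.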

Experiments:
[1] = caspase-3/7 activation in A1-2A-tBid MEFs, dose response, orthogonal assay for A1 inhibitor project, cell-based, MEF A1-2A-tBid, luminescence, dry powder, set 2 (AID 504359); details: MEF A1-2A-tBid cells, caspase 3/7 luminescence, 3 h; at 35 µM (top of the series)
[2] = system: MEF A1-2A-tBid cells, caspase 3/7 luminescence, 3 h; assay: as above

Compound | caspase activation [1] | AC10 [2] [µM]
O=c1oc2ccccc2c(Sc2ccccc2)c1[N+](=O)[O-] | -5.14% (inactive) | 
Cn1c(=O)c([N+](=O)[O-])c(Oc2ccccc2)c2ccccc21 | 0.967% (inactive) | 
CCOC(=O)N1CCN(c2c([N+](=O)[O-])c(=O)n(C)c3ccccc23)CC1 | -0.293% (inactive) | 
C/C1=C/C(=O)O[C@@H]2C[C@@H](CC[C@H](C)/C=C\CC1)O[C@@](O)(C1CSC(=O)N1)C2 (stereo partly specified) | 3.32% (inactive) | 
Cc1ccc(Sc2c([N+](=O)[O-])cnc3ccccc23)cc1 |  | 5.49
Cc1ccc(Sc2cc(=O)n(C)c3ccccc23)cc1 | -7.35% (inactive) | 
O=c1oc2ccccc2c(N2CCCCC2)c1[N+](=O)[O-] | -2.24% (inactive) | 
CCSc1c([N+](=O)[O-])c(=O)oc2ccccc12 | -3.21% (inactive) | 
Cc1ccc(Sc2c([N+](=O)[O-])c(=O)n(C)c3ccccc23)cc1 |  | 7.45
O=[N+]([O-])c1cnc2ccccc2c1Sc1ccccc1 |  | 7.93
O=C(Oc1cccc(/C=N/Nc2nc(Nc3ccccc3)nc(N3CCOCC3)n2)c1)c1ccco1 | 3.43% (inactive) | 
Cn1c(=O)c([N+](=O)[O-])c(Nc2ccc(Cl)cc2)c2ccccc21 | -0.562% (inactive) | 
O=c1oc2ccccc2c(Cl)c1[N+](=O)[O-] | -6.09% (inactive) | 
O=c1oc2ccccc2c(Nc2cc(Cl)cc(Cl)c2)c1[N+](=O)[O-] | -1.39% (inactive) | 
Cc1ccc(Nc2c([N+](=O)[O-])c(=O)oc3ccccc23)cc1 | 1.44% (inactive) | 
Cn1c(=O)c([N+](=O)[O-])c(Cl)c2ccccc21 |  | 0.716
Cn1c(=O)c([N+](=O)[O-])c(-n2cnc3ccccc32)c2ccccc21 |  | 24.8
CN1C(=O)C(C)(C)N(Cc2ccccc2)c2ccccc21 | 0.072% (inactive) | 
Cc1ccc(Sc2c([N+](=O)[O-])c(=O)oc3ccccc23)cc1 | -3.75% (inactive) | 
Cc1ccc(Nc2c([N+](=O)[O-])c(=O)n(C)c3ccccc23)cc1 | -0.806% (inactive) | 
CCOCCCNc1c([N+](=O)[O-])c(=O)n(C)c2ccccc12 | 0.513% (inactive) | 
